For this assay, the system named is BDF1 mice, M5076 sarcoma ip, median survival T/C. The experiment in a line: NCI In Vivo Anticancer Drug Screen. Data for tumor model Sarcoma M5076 (intraperitoneal) in B6D2F1 (BDF1) mice. The note with it: endpoint: median survival time, higher = longer survival. How it is done:
The antitumor activity of compounds was measured in mice bearing transplantable tumors. Survival or tumor size were measured and the results are expressed as the measurement made in the treated group (T) divided by the measurement made in the vehicle treated control group (C). The tumor model used in this assay is Sarcoma M5076 (intraperitoneal) in B6D2F1 (BDF1) mice

Setting [1] is: dose: 100.0 mg/kg/injection, schedule: Q04DX004 (ip), vehicle: saline.
[2] abbreviates: dose: 200.0 mg/kg/injection, schedule: Q04DX004 (ip), vehicle: saline.
[3] abbreviates: dose: 400.0 mg/kg/injection, schedule: Q04DX004 (ip), vehicle: saline.
Where [4] appears, read: dose: 50.0 mg/kg/injection, schedule: Q04DX004 (ip), vehicle: saline.
The mark [5] stands for this setting: dose: 60.0 mg/kg/injection, schedule: Q04DX005 (ip), vehicle: saline.

Several values for one entry are separate records, joined by “and”; a condition that tells them apart may be missing. Identical values can stand only once. Inconclusive results and toxic doses are left out.

On to `Nc1nncs1`, for which the T/C (dose: 100.0 mg/kg/injection, schedule: Q04DX004 (ip), vehicle: saline with Tween-80) was 113 % of control; the T/C under setting [1] was 112 % of control and 116 % of control and 121 % of control; the T/C (dose: 100.0 mg/kg/injection, schedule: Q04DX005 (ip), vehicle: saline with Tween-80) was 112 % of control; the T/C (dose: 100.0 mg/kg/injection, schedule: Q04DX005 (ip), vehicle: saline) is 119 % of control; the T/C (dose: 200.0 mg/kg/injection, schedule: Q04DX004 (ip), vehicle: saline with Tween-80) is 116 % of control; the T/C under setting [2] was 112 % of control and 124 % of control. Besides, the T/C (dose: 200.0 mg/kg/injection, schedule: Q04DX005 (ip), vehicle: saline with Tween-80) is 121 % of control; the T/C (dose: 200.0 mg/kg/injection, schedule: Q04DX005 (ip), vehicle: saline) was 116 % of control and 124 % of control; the T/C (dose: 400.0 mg/kg/injection, schedule: Q04DX004 (ip), vehicle: saline with Tween-80) was 119 % of control; the T/C under setting [3] is 110 % of control; the T/C (dose: 400.0 mg/kg/injection, schedule: Q04DX005 (ip), vehicle: saline) was 109 % of control; the T/C (dose: 800.0 mg/kg/injection, schedule: Q04DX004 (ip), vehicle: saline with Tween-80) is 124 % of control. Moreover, the T/C runs as follows: (dose: 800.0 mg/kg/injection, schedule: Q04DX004 (ip), vehicle: saline) 106 % of control; (dose: 800.0 mg/kg/injection, schedule: Q04DX005 (ip), vehicle: saline) 151 % of control.

As to `CC[C@](O)(C(=O)O)c1cc2n(c(=O)c1CO)Cc1cc3ccccc3nc1-2`, where the note is “dose: 12.5 mg/kg/injection, schedule: Q04DX004 (ip), vehicle: saline”, the T/C was 124 % of control.

As for `COC1C(O)CC(OC2CC(Oc3cc4cc5c(c(O)c4c(O)c3C)C(=O)[C@@H](OC3CC(OC4CC(OC6CC(C)(O)C(OC(C)=O)C(C)O6)C(O)C(C)O4)C(O)C(C)O3)[C@H]([C@H](OC)C(=O)[C@@H](O)[C@@H](C)O)C5)OC(C)C2OC(C)=O)OC1C` (stereo not given in full), the T/C runs as follows: (dose: 37.5 micrograms/kg/injection, schedule: Q01DX009 (ip), vehicle: water) 168 % of control; (dose: 75.0 micrograms/kg/injection, schedule: Q01DX009 (ip), vehicle: water) 163 % of control.

For the molecule `O=C(NC(Cc1ccc(I)cc1)C(=O)O)c1cccc(Br)c1` (stereo not given), the T/C runs as follows: (dose: 100.0 mg/kg/injection, schedule: Q04DX004 (ip), vehicle: Klucel (hydroxypropylcellulose) (HPC)) 116 % of control; (dose: 200.0 mg/kg/injection, schedule: Q04DX004 (ip), vehicle: Klucel (hydroxypropylcellulose) (HPC)) 114 % of control; (dose: 400.0 mg/kg/injection, schedule: Q04DX004 (ip), vehicle: Klucel (hydroxypropylcellulose) (HPC)) 99 % of control.

On to `COc1cc2c(cc1OC)C1C(=O)c3ccc4c(c3OC1CO2)CC(C(C)(O)CO)O4` (stereo not given), for which the T/C (dose: 2.0 mg/kg/injection, schedule: Q01DX009 (ip), vehicle: DMSO) is 110 % of control; the T/C (dose: 4.0 mg/kg/injection, schedule: Q01DX009 (ip), vehicle: DMSO) is 96 % of control; the T/C (dose: 8.0 mg/kg/injection, schedule: Q01DX009 (ip), vehicle: DMSO) was 99 % of control.

With `C=C1C(O)C2OC3(CCC(/C=C/C(C)C4CC5(C)SC5C5(OC(CC(C)(O)C(=O)O)CCC5O)O4)O3)CCC2OC1C(O)CC(C)C1OC2(CCCCO2)CCC1C` (stereo not given), the T/C was 108 % of control (dose: 0.5 micrograms/kg/injection, schedule: Q01DX009 (ip), vehicle: saline + alcohol); 111 % of control (dose: 1.0 micrograms/kg/injection, schedule: Q01DX009 (ip), vehicle: saline + alcohol); 120 % of control (dose: 2.0 micrograms/kg/injection, schedule: Q01DX009 (ip), vehicle: saline + alcohol); 155 % of control (dose: 2.5 micrograms/kg/injection, schedule: Q01DX009 (ip), vehicle: saline + alcohol).

With `COc1cc2nc3occc3c(OC)c2cc1OCC(O)C(C)(C)O` (stereo not given), the T/C (dose: 2.0 mg/kg/injection, schedule: Q01DX009 (ip), vehicle: Klucel (hydroxypropylcellulose) (HPC)) is 106 % of control; the T/C (dose: 4.0 mg/kg/injection, schedule: Q01DX009 (ip), vehicle: Klucel (hydroxypropylcellulose) (HPC)) is 117 % of control; the T/C (dose: 8.0 mg/kg/injection, schedule: Q01DX009 (ip), vehicle: Klucel (hydroxypropylcellulose) (HPC)) was 106 % of control; the T/C (dose: 16.0 mg/kg/injection, schedule: Q01DX009 (ip), vehicle: Klucel (hydroxypropylcellulose) (HPC)) is 113 % of control; the T/C (dose: 32.0 mg/kg/injection, schedule: Q01DX009 (ip), vehicle: Klucel (hydroxypropylcellulose) (HPC)) is 106 % of control.

With `C/C(=N\NC(=S)N1CC2CCC(CC2)C1)c1nccs1`, the T/C by setting is: (dose: 12.5 mg/kg/injection, schedule: Q04DX004 (ip), vehicle: saline with Tween-80) 107 % of control; (dose: 25.0 mg/kg/injection, schedule: Q04DX004 (ip), vehicle: saline with Tween-80) 106 % of control.

Consider `C1CCC(NC2CCCCC2)CC1`, for which the T/C (dose: 25.0 mg/kg/injection, schedule: Q04DX004 (ip), vehicle: saline) is 102 % of control; the T/C under setting [4] was 98 % of control; the T/C under setting [1] was 100 % of control; the T/C under setting [2] is 105 % of control; the T/C under setting [3] is 105 % of control.

On to `CCC(C)C(N)C(=O)NC(CC(N)=O)C(=O)NC(CC(C)C)C(=O)NC(CCCCN)C(=O)NC(C)C(=O)NC(CC(C)C)C(=O)NC(C)C(=O)NC(C)C(=O)NC(CC(C)C)C(=O)NC(C)C(=O)NC(CCCCN)C(=O)NC(CCCCN)C(=O)NC(C(=O)NC(CC(C)C)C(N)=O)C(C)CC` (stereo not given), for which the T/C runs as follows: (dose: 1.56 mg/kg/injection, schedule: Q01DX009 (ip), vehicle: Klucel (hydroxypropylcellulose) (HPC)) 95 % of control; (dose: 3.12 mg/kg/injection, schedule: Q01DX009 (ip), vehicle: Klucel (hydroxypropylcellulose) (HPC)) 101 % of control; (dose: 6.25 mg/kg/injection, schedule: Q01DX009 (ip), vehicle: Klucel (hydroxypropylcellulose) (HPC)) 96 % of control; (dose: 12.5 mg/kg/injection, schedule: Q01DX009 (ip), vehicle: Klucel (hydroxypropylcellulose) (HPC)) 98 % of control.

As to `CC(/C=N/N=C(N)N)=N\N=C(N)N`, the T/C is, setting by setting: (dose: 32.4 mg/kg/injection, schedule: Q04DX005 (ip), vehicle: saline) 110 % of control; (dose: 54.0 mg/kg/injection, schedule: Q04DX005 (ip), vehicle: saline) 96 % of control; (dose: 90.0 mg/kg/injection, schedule: Q04DX005 (ip), vehicle: saline) 110 % of control.

With `N[C@H](C(=O)O)[C@@H]1CC(Cl)=NO1`, the T/C runs as follows: (dose: 15.0 mg/kg/injection, schedule: Q04DX005 (ip), vehicle: saline) 113 % of control; under setting [5], 160 % of control; (dose: 120.0 mg/kg/injection, schedule: Q04DX005 (ip), vehicle: saline) 195 % of control and 160 % of control.

In the case of `COC(=O)[C@@]12OC[C@]34[C@H]([C@@H](O)[C@@H]1O)[C@@]1(C)CC(=O)C(O)=C(C)[C@@H]1C[C@H]3OC(=O)[C@H](OC(=O)/C=C(\C)C(C)C)[C@@H]24`, the T/C is 104 % of control and 107 % of control and 113 % of control (dose: 0.12 mg/kg/injection, schedule: Q04DX004 (ip), vehicle: saline); 108 % of control (2×) and 116 % of control (dose: 0.12 mg/kg/injection, schedule: Q04DX005 (ip), vehicle: saline); 111 % of control and 114 % of control (dose: 0.13 mg/kg/injection, schedule: Q04DX004 (ip), vehicle: saline); 106 % of control and 114 % of control (dose: 0.13 mg/kg/injection, schedule: Q04DX005 (ip), vehicle: saline).

In the case of `O=c1n(CC2CO2)c(=O)n(CC2CO2)c(=O)n1CC1CO1` (stereo not given), the T/C by setting is: (dose: 13.0 mg/kg/injection, schedule: Q04DX005 (ip), vehicle: saline) 191 % of control; (dose: 21.6 mg/kg/injection, schedule: Q04DX005 (ip), vehicle: saline) 270 % of control; (dose: 36.0 mg/kg/injection, schedule: Q04DX005 (ip), vehicle: saline) 377 % of control; under setting [5], 377 % of control.

With `CC(=O)N(C)O`, the T/C by setting is: (dose: 37.0 mg/kg/injection, schedule: Q04DX004 (ip), vehicle: saline with Tween-80) 99 % of control; (dose: 75.0 mg/kg/injection, schedule: Q04DX004 (ip), vehicle: saline with Tween-80) 107 % of control; (dose: 150.0 mg/kg/injection, schedule: Q04DX004 (ip), vehicle: saline with Tween-80) 107 % of control; (dose: 300.0 mg/kg/injection, schedule: Q04DX004 (ip), vehicle: saline with Tween-80) 113 % of control; (dose: 600.0 mg/kg/injection, schedule: Q04DX004 (ip), vehicle: saline with Tween-80) 103 % of control.

For the molecule `CNc1nc(N(C)C)nc(N(C)C)n1`, the T/C is, setting by setting: under setting [4], 114 % of control; under setting [1], 119 % of control; under setting [2], 123 % of control.

The record behind these values is PubChem BioAssay AID286 (DTP/NCI, 2004).
